This is an account of results in patent publication US20220041647A1, “ESTRA-1,3,5(10)-TRIENE COMPOUNDS CONDENSED IN POSITION 16(17) WITH A PYRAZOLE RING AS INHIBITORS OF 17-HSD1” (FORENDO PHARMA LTD, priority 2018, published 2022).

For data set [1], the target named is T1, recombinant human 17β-HSD1 (Homo sapiens, UniProt P14061).
T1 construct: made in house; host or cells: Sd9 (Sf9) insect cells, baculovirus (Bac to Bac Expression System)
T1 sequence (P14061 1-328): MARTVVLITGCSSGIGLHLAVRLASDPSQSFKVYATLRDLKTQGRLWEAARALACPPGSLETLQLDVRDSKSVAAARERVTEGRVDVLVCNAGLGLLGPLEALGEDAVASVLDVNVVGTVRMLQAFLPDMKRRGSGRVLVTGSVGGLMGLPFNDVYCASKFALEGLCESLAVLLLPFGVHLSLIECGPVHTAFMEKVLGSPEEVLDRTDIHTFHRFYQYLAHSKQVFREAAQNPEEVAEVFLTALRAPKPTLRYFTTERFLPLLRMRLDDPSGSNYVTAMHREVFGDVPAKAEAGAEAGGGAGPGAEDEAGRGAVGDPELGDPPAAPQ
As to the kind of experiment: Inhibition of recombinant human 17β-HSD1 (estrone to estradiol conversion, HPLC/radioactivity). The note with it: compound 100 nM; 30 nM estrone, 1 mM NADPH, 30 min RT. In kind it is biochemical. In short, it runs like this:
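Microsomal human 17β-HSD1 from Sf9 baculovirus (1 μg/ml) was incubated 30 min at RT in 20 mM KH2PO4 pH 7.4 with 30 nM ^3H-estrone, 1 mM NADPH and inhibitor at 1 μM or 0.1 μM (1% DMSO). Estrone and estradiol were separated by HPLC with radioactivity detection. % inhibition = 100 − % conversion relative to uninhibited control.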

Data set [2] in a line: Metabolic stability assay, human hepatocyte incubations. Type of data set: in vitro ADME. The note with it: compound 1 μM, human hepatocytes, 0-60 min at 37° C.; read-out: Human hepatocytes MetStab T½ min. As to the method:
Compound stock solutions of the invention were prepared in […]. Final concentration of DMSO was adjusted to 1% in all samples. The in vitro metabolic stability of the compounds of the invention was determined for exemplified compounds using human hepatocyte incubations; study compounds at concentration of 1 μM were incubated 0, 10, 20, 40 and 60 min at 37° C. Samples were collected at all time points and compounds were detected by LC-MS/MS analysis. The percent compound remaining is calculated by comparing the peak area of the parent compound at each time point to time zero. In vitro metabolic stability was determined as half life (T1/2), which was determined by regression analysis of the percent parent disappearance vs. time curve.

In data set [3] the target is T2, recombinant human 17β-HSD2 (Homo sapiens, UniProt P37059).
T2 construct: made in house; host or cells: Sd9 (Sf9) insect cells, baculovirus (Bac to Bac Expression System)
T2 sequence (P37059 1-387): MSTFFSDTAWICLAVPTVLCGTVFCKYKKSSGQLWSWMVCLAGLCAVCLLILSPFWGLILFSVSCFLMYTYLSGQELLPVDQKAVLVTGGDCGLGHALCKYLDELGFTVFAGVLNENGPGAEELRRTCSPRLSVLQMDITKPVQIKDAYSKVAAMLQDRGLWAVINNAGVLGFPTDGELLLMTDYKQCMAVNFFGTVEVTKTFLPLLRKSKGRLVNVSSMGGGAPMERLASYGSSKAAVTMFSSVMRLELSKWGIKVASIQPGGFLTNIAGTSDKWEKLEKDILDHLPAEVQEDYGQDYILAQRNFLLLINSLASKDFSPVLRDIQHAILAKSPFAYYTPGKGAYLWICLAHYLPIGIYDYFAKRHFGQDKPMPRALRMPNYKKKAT
As to the kind of experiment: Inhibition of recombinant human 17β-HSD2 (estradiol to estrone conversion, HPLC/radioactivity). In kind it is biochemical. Particulars: compound 1 μM; 50 nM estradiol, 1 mM NADH, 30 min RT. An outline of the steps:
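Membrane extract of Sf9 cells expressing recombinant human 17β-HSD2 (4 μg/ml), in 20 mM KH2PO4 pH 8.5 with 50 nM ^3H-spiked estradiol and 1 mM NADH, 30 min at RT, 1% DMSO. Compound at 1 μM or 0.1 μM; estrone formation by HPLC radioactivity, % inhibition relative to uninhibited conversion.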

As usually defined, the inhibition is the change of the read-out against control, counted positive when it falls. Take `CC(C)(C)NC(=O)CC[C@@H]1c2c[nH]nc2[C@@]2(C)CCC3c4ccccc4CCC3C12` (stereo partly drawn) [Compound 201, N-(tert-butyl)-3-((8aS,12S)-8a-methyl-1,2,6b,7,8,8a,10,12,12a,12b-decahydronaphtho[2′,1′:4,5]indeno[1,2-c]pyrazol-12-yl)propanamide]: the inhibition at 0.1 µM in data set [1] was 87%. Further, the half-life at 1 μM in data set [2] was 13 min. For the same compound, the inhibition at 1 µM in data set [3] came to 4%.

Consider `C[C@]12CCC3c4ccccc4CCC3C1[C@H](CCC(=O)N1CCCC1)c1c[nH]nc12` (stereo partly drawn) [Compound 147, 3-((8aS,12S)-8a-methyl-1,2,6b,7,8,8a,10,12,12a,12b-decahydronaphtho[2′,1′:4,5]indeno[1,2-c]pyrazol-12-yl)-1-(pyrrolidin-1-yl)propan-1-one], for which, in data set [1], the inhibition at 0.1 µM came to 86%. Also, the half-life at 1 μM in data set [2] turned out to be 9 min. In data set [3], the inhibition at 1 µM turned out to be 11%.

In the case of `C[C@]12CCC3c4cccc(F)c4CCC3C1[C@H](CCC(=O)NC1CCOCC1)c1c[nH]nc12` (stereo partly drawn) [Compound 45, 3-((8aS,12S)-3-fluoro-8a-methyl-1,2,6b,7,8,8a,10,12,12a,12b-decahydronaphtho[2′,1′:4,5]indeno[1,2-c]pyrazol-12-yl)-N-(tetrahydro-2H-pyran-4-yl)propanamide], in data set [1], the inhibition at 0.1 µM is 90%. In addition, in data set [2], the half-life at 1 μM was found to be 35 min. The inhibition at 1 µM in data set [3] worked out at 3%.

Take `C[C@]12CCC3c4cccc(F)c4CCC3C1[C@H](CCC(=O)N1CCOCC1)c1c[nH]nc12` (stereo partly drawn) [Compound 234, 3-((8aS,12S)-3-fluoro-8a-methyl-1,2,6b,7,8,8a,10,12,12a,12b-decahydronaphtho[2′,1′:4,5]indeno[1,2-c]pyrazol-12-yl)-1-morpholinopropan-1-one]: the inhibition at 0.1 µM in data set [1] came to 85%. The half-life at 1 μM in data set [2] was 26 min. In addition, in data set [3], the inhibition at 1 µM turned out to be 0%.

For `CN(CC(C)(C)O)C(=O)CC[C@@H]1c2c[nH]nc2[C@@]2(C)CCC3c4cccc(F)c4CCC3C12` (stereo partly drawn) [Compound 243, 3-((8aS,12S)-3-fluoro-8a-methyl-1,2,6b,7,8,8a,10,12,12a,12b-decahydronaphtho[2′,1′:4,5]indeno[1,2-c]pyrazol-12-yl)-N-(2-hydroxy-2-methylpropyl)-N-methylpropanamide], the inhibition at 0.1 µM in data set [1] worked out at 80%. In addition, the half-life at 1 μM in data set [2] is 15 min. Further, the inhibition at 1 µM in data set [3] worked out at 5%.
